# From the supplement of paper PMC10307832
# Experiments:
# Test in all cases: relative viability (nuclei count vs DMSO), 5 days (fraction); higher = more cells survive
# MIM1 = compound: CC1=CSC(=NC2CCCCC2)N1/N=C/C3=C(C(=C(C=C3)O)O)O [MIM1]
# In short: (§1)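 Lung cancer cell lines in 1536-well plates were exposed by pinning to five library-drug doses (not always all listed) √10 apart, following an overnight hold at 37 °C. MetaXpress counted Hoechst-stained nuclei from 4× images taken after 5 days without medium change. Viability is the median ratio of treated-well to vehicle-well nuclei across plates. Plates required control CV below 25% and at least one doubling.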
# Luminespib = compound: CCNC(=O)c1noc(-c2cc(C(C)C)c(O)cc2O)c1-c1ccc(CN2CCOCC2)cc1 [Luminespib]
# In short: as §1
# Saracatinib = compound: CN1CCN(CCOc2cc(OC3CCOCC3)c3c(Nc4c(Cl)ccc5c4OCO5)ncnc3c2)CC1 [Saracatinib]
# In short: as §1
# Nilotinib = compound: Cc1cn(-c2cc(NC(=O)c3ccc(C)c(Nc4nccc(-c5cccnc5)n4)c3)cc(C(F)(F)F)c2)cn1 [Nilotinib]
# In short: as §1
# Lenalidomide = compound: Nc1cccc2c1CN(C1CCC(=O)NC1=O)C2=O [Lenalidomide]
# In short: as §1
Cell Line,relative viability (MIM1; 0.2 µM),relative viability (MIM1; 0.6325 µM),relative viability (MIM1; 2 µM),relative viability (MIM1; 6.325 µM),relative viability (MIM1; 20 µM),relative viability (Luminespib; 0.002 µM),relative viability (Luminespib; 0.006325 µM),"relative viability (Luminespib; 0.01 µM, anchor plate)",relative viability (Luminespib; 0.02 µM),relative viability (Luminespib; 0.06325 µM),relative viability (Luminespib; 0.2 µM),relative viability (Saracatinib; 0.02 µM),relative viability (Saracatinib; 0.2 µM),relative viability (Saracatinib; 0.6325 µM),relative viability (Saracatinib; 2 µM),relative viability (Nilotinib; 0.001 µM),relative viability (Nilotinib; 0.003162 µM),relative viability (Nilotinib; 0.01 µM),relative viability (Nilotinib; 0.03162 µM),relative viability (Nilotinib; 0.1 µM),relative viability (Lenalidomide; 0.253 µM),relative viability (Lenalidomide; 0.8 µM),relative viability (Lenalidomide; 2.53 µM),relative viability (Lenalidomide; 8 µM)
COR-L 105,1,0.878,0.986,0.769,0.412,0.873,0.913,0.822,0.627,0.232,0.24,1.08,0.868,0.769,0.542,1.11,0.915,1.13,0.87,0.845,0.976,0.971,1.05,1.01
HCC-827,1.01,0.994,1.03,0.367,0.39,1.06,1,0.647,0.984,1.03,0.235,1.02,0.813,0.366,0.188,1.02,1.09,1.07,1.03,1.06,1.04,0.99,1.05,1.1
RERF-LC-KJ,0.932,0.977,0.823,0.574,0.271,0.979,0.994,1.24,0.844,0.314,0.234,1.1,0.979,1.02,0.981,0.932,1.1,1.12,0.868,0.81,1.06,0.947,1.08,0.943
NCI-H1915,1.01,0.702,0.922,0.477,0.398,0.86,0.878,0.795,0.878,0.859,0.119,0.993,0.91,1.02,0.911,0.916,1.07,1.11,0.955,0.432,0.971,0.836,1.08,0.96
HCC-44,1.01,0.969,0.661,0.604,0.203,0.969,1.01,1.09,0.997,0.55,0.225,1.06,0.878,1.04,1.03,1,0.921,0.93,0.949,0.722,1.01,0.68,0.992,0.78
NCI-H322M,0.964,0.895,0.906,0.826,0.522,0.921,0.883,0.918,0.764,0.426,0.318,0.969,0.886,0.696,0.365,1.03,0.962,–,1.06,1.05,0.97,0.953,1.02,0.918
Calu-6,1.03,0.928,0.967,0.444,0.242,1.03,0.892,–,0.899,0.136,0.122,0.923,0.902,0.926,0.755,0.937,1.07,1.09,0.781,0.891,0.973,1.02,1.09,1.02
SK-MES-1,1.02,0.986,0.996,0.766,0.507,0.986,0.931,0.831,0.903,0.171,0.145,1,0.894,0.817,0.579,0.994,1.13,1.26,0.924,0.877,0.988,0.995,1.06,0.936
NCI-H1793,0.874,–,0.838,0.809,0.858,0.775,0.84,0.192,0.248,0.137,0.15,0.909,0.674,1.01,0.666,0.91,1.22,1.28,0.623,0.204,0.962,–,1.08,0.37
NCI-H2347,1.1,0.972,1.09,0.757,0.478,1.02,0.721,0.421,0.911,0.722,0.318,0.983,0.903,1.09,1.06,0.97,1.14,1.13,0.841,0.793,1.03,1.13,1.17,0.9
EPLC-272H,0.969,0.888,0.934,0.593,0.162,0.82,0.887,0.301,0.557,0.496,0.123,0.974,0.881,1.09,0.786,0.894,0.94,0.92,0.676,0.37,1.11,0.741,1.07,0.754
NCI-H661,0.991,1.01,0.941,0.746,0.406,1.01,0.969,0.916,0.778,0.754,0.325,1.02,0.977,0.926,0.669,0.951,1.06,1.09,0.949,0.948,0.917,0.934,1.03,0.958
COR-L23,0.995,1.11,1.01,0.77,0.424,1.14,0.913,0.672,0.925,0.091,0.0907,1.05,0.856,0.905,0.975,0.877,1.34,1.2,0.704,0.768,1.01,0.957,1.2,1.22
NCI-H358,1.01,0.953,0.86,0.429,0.237,0.966,0.887,0.352,0.512,0.115,0.111,0.938,0.822,0.568,0.409,0.831,1.18,1.12,0.836,0.776,0.908,1.01,0.893,1.08
NCI-H2009,0.996,0.965,1.04,0.716,0.29,1.03,0.923,1.01,0.903,0.0828,0.0845,1.04,0.906,0.997,0.782,0.9,1.05,1.18,1,0.588,0.994,0.986,1.13,1.01
NCI-H1734,1.02,0.871,0.953,0.476,0.182,0.999,0.902,0.198,0.634,0.159,0.15,1.06,–,0.86,0.783,0.918,1.14,1.21,0.687,0.402,1.01,1.07,1.09,0.798
NCI-H460,0.988,0.994,0.827,0.45,0.124,1.02,0.952,0.0332,0.806,0.0356,0.0297,0.998,0.82,0.976,0.877,0.924,1.21,1.12,0.78,0.857,0.984,0.956,1.04,1
SW 900,0.915,0.947,0.782,0.502,0.158,0.945,0.732,0.18,0.474,0.138,0.132,0.97,0.658,0.878,0.694,0.748,0.939,1.07,0.639,0.611,0.809,–,1.03,0.598
NCI-H1666,1.03,0.966,0.945,0.802,0.564,1.05,0.937,1.03,1.01,0.956,0.838,1.02,0.942,1.27,1.17,0.934,0.989,1.06,0.918,1.01,1.02,0.745,1.1,1.05
NCI-H2342,0.944,1,1.01,0.803,1.03,0.974,0.955,0.76,0.619,0.774,0.592,1.07,0.947,1.14,0.945,0.868,0.928,1.02,0.831,1.02,1.01,0.952,1.04,0.733
LC-2-ad,0.991,0.699,0.944,0.428,0.231,0.95,0.936,1.03,0.915,0.561,0.207,1.05,0.978,1.15,0.944,0.95,1.15,1.15,0.912,0.479,1.04,0.862,1.08,1.02
NCI-H520,1.02,1.01,1.01,0.859,0.383,1.05,1.02,0.235,0.547,0.163,0.157,1.01,–,0.897,0.494,0.86,–,1.21,0.896,0.949,0.918,0.917,1.14,0.784
NCI-H1703,0.897,1,0.878,0.205,0.133,1.12,0.899,–,0.708,0.134,0.14,0.93,0.772,0.448,0.326,0.795,0.684,0.538,0.286,–,0.991,0.923,1.01,0.904
LCLC-103H,1.02,0.976,0.973,0.742,0.53,0.982,1.01,0.954,0.941,1.02,0.83,0.944,0.884,1.02,0.963,1.01,1.08,1.12,0.975,0.804,0.97,1,0.988,0.783
NCI-H2023,0.896,0.954,0.847,0.43,0.0909,0.903,0.999,0.769,0.5,0.062,0.058,1.04,0.663,0.905,0.821,0.916,0.9,1.31,0.83,0.537,0.928,1.04,1.13,0.968
NCI-H1944,0.982,0.864,0.63,0.568,0.477,0.936,0.954,0.749,0.595,0.721,0.333,0.996,–,0.915,0.555,1,1.11,1.21,0.924,0.988,0.989,0.743,0.973,0.713
HCC-15,0.997,0.717,1.08,0.425,0.105,0.967,0.923,0.388,0.943,0.33,0.128,0.982,0.888,1.07,0.99,0.909,1.18,1.15,0.761,0.496,1.02,0.877,1.21,0.854
NCI-H1975,0.959,0.968,0.84,0.609,0.424,0.981,0.91,0.235,0.507,0.158,0.147,1.04,0.952,1.02,0.698,0.871,1,0.981,0.784,0.724,1.03,0.821,1.1,0.889
